Assay results taken from US7445892B2, “Method of testing anticancer agent-sensitivity of tumor cells” (Eisai Co., Ltd., priority 2000, dated 2008).

Key:
Assay type in all cases: cell-based, human
HCT116-C9-C1 [1] = assay: Gene expression analysis using GeneChip in E7070-resistant strain C9-C1; settings: resistant strain C9-C1, 8 μM, 12 hours
Experimental: E7070, or ER-35748 or ER-68487 represented by the structural formula shown below was added to the media of an E7070-susceptible strain HCT116-C9 and an E7070-resistant strain HCT116-C9-C1 at a concentration of 8 μM and the cells were cultured. Then, cells were recovered after 0, 3, 6 and 12 hours. Further, the cells were also cultured for 12 hours without adding the drug and recovered. Total RNA was extracted from these cells and subjected to the subsequent analyses. […] The stained GeneChip was scanned by using HP Argon Ion Laser Confocal Scanner (Hewlett Packard) to measure its fluorescence intensity. The fluorescence was measured at 570 nm by using an excitation light at 488 nm. The quantitative data analyses were all conducted by using GeneChip Software (Affymetrix). To quantify RNA, an average of “differences [(Perfect match hybridization signal)−(Mismatch signal)]” was obtained for each probe family. […] Two kinds of E7070-resistant strains (C9-C1 and another resistant strain (C9-C4) obtained in the same method as C9-C1) were treated with 8 μM of E7070 for 12 hours in the same manner as described above, and variations of the gene expression were analyzed by using GeneChip for the genes listed in Tables 1 and 2.

HCT116-C9-C1 [2] = assay: Gene expression analysis by quantitative PCR; settings: resistant strain HCT116-C9-C1, 8 μM, 0-12 hours, FIG. 4
Experimental: (§1) E7070, or ER-35748 or ER-68487 represented by the structural formula shown below was added to the media of an E7070-susceptible strain HCT116-C9 and an E7070-resistant strain HCT116-C9-C1 at a concentration of 8 μM and the cells were cultured. Then, cells were recovered after 0, 3, 6 and 12 hours. Further, the cells were also cultured for 12 hours without adding the drug and recovered. In order to confirm that variations in gene expression obtained in Example 2 reflected the susceptibility of a tumor cell to E7070, changes of gene expression in E7070-susceptible cells and E7070-resistant cells were examined by quantitative PCR using RNA shown in Example 1, SYBR Green and ABI Prism 7700 Sequence Detection System (Perkin-Elmer Applied Biosystems). The operation was performed in two steps of a reverse transcription reaction and PCR reaction. […] The mRNA level in each specimen was quantified by measuring fluorescence intensity. In comparison of two or more specimens, quantitative values were corrected based on the mRNA level of GAPDH in each specimen. The relationships between the drug treatment time and each mRNA level are shown in FIGS. 2 to 5, where the quantified value at 0 hour after the drug treatment was used as a control (100%).

HCT116-C9 = assay: Gene expression analysis by quantitative PCR; settings: susceptible strain HCT116-C9, 8 μM, 0-12 hours, FIG. 2
Experimental: as §1

MOLT-4 = assay: Gene expression analysis using GeneChip in three kinds of cancers; settings: MOLT-4, 8 μM for 12 hours
Experimental: (§2) Gene expression changes in three kinds of cancers of HCT116-C9 (human colon cancer cell strain), MDA-MB-435 (human breast cancer cell strain) and MOLT-4 (human T lymphoblastic leukemia cell strain) caused by E7070 (treated with 8 μM for 12 hours) were examined by using GeneChip in the same manner as in Example 2. A list of the genes of which expression was enhanced 1.8 times or more in common in the three kinds of cancers is shown in Table 3. Further, a list of the genes of which expression was inhibited 1.8 times or more in common in the three kinds of cancers is shown in Table 4. Since the genes of which expression varies (enhanced or reduced) in common in these strains of the three kinds of cancers established from cancer patients with totally different genetic backgrounds are very likely to be more closely associated with the E7070 antitumor action mechanism common to the tumor cells, it is considered that they can be used as valid markers when susceptibility of a tumor cell to E7070 and its related compounds is tested.

MDA-MB-435 = assay: as above; settings: MDA-MB-435, 8 μM for 12 hours
Experimental: as §2

## NS(=O)(=O)c1ccc(S(=O)(=O)Nc2cccc3c(Cl)c[nH]c23)cc1 [E7070, N-(3-chloro-7-indolyl)-1,4-benzenedisulfonamide]
HCT116-C9-C1 [1]
  variations of the gene expression for the genes listed in Tables 1 and 2: no gene that increased or decreased 1.8 times or more was observed
HCT116-C9-C1 [2]
  mRNA level variation of S80343, U07919, U11791, M95809, U18291, U63743, M61764 (corrected by GAPDH): no expression variation was observed
HCT116-C9
  mRNA level variation of S80343, U07919, U11791, M95809, U18291, U63743, M61764 (corrected by GAPDH): largest expression variation
MOLT-4
  enhancement of expression of the genes listed in Table 3: ≥ 1.8 times
  inhibition of expression of the genes listed in Table 4: ≥ 1.8 times
MDA-MB-435
  enhancement of expression of the genes listed in Table 3: ≥ 1.8 times
  inhibition of expression of the genes listed in Table 4: ≥ 1.8 times
